Reference: US8097628B2, “Compounds” (Glaxo Group Limited, priority 2008, dated 2012)
In brackets after ≈: the same amount, converted by molar mass.

test system: Mycobacterium tuberculosis H37Rv; test: Mycobacterium tuberculosis H37Rv Inhibition Assay; format: cell-based; settings: ATCC 25618 / H37Rv, H37Rv strain (ATCC25618), Middlebrook 7H9, resazurin fluorescence, read-out: MtB MIC

Structure (SMILES)	MIC
Cc1ncc(CNC2CCN(C[C@@H]3Cn4c(=O)ccc5ccc(=O)n3c54)CC2)cc1Cl.Cl [Example 1, (1R)-1-[(4-{[(5-chloro-6-methyl-3-pyridinyl)methyl]amino}-1-piperidinyl)methyl]-1,2-dihydro-4H,9H-imidazo[1,2,3-ij]-1,8-naphthyridine-4,9-dione hydrochloride]	0.04 µg/mL
Cc1ncc(CNC2CCN(C[C@@H]3Cn4c(=O)ccc5ncc(=O)n3c54)CC2)cc1Cl.Cl [Example 2, (2R)-2-[(4-{[(5-chloro-6-methyl-3-pyridinyl)methyl]amino}-1-piperidinyl)methyl]-1,2-dihydro-3H,8H-2a,5,8a-triazaacenaphthylene-3,8-dione hydrochloride]	0.04 µg/mL
Cl.O=c1ccc2ncc(=O)n3c2n1C[C@H]3CN1CCC(NCc2ccc(Cl)c(Cl)c2)CC1 [Example 3, (2R)-2-[(4-{[(3,4-dichlorophenyl)methyl]amino}-1-piperidinyl)methyl]-1,2-dihydro-3H,8H-2a,5,8a-triazaacenaphthylene-3,8-dione]	0.04 µg/mL
Cl.O=c1ccc2ncc(=O)n3c2n1C[C@H]3CN1CCC(NCc2ccc(F)c(C(F)(F)F)c2)CC1 [Example 4, (2R)-2-{[4-({[4-fluoro-3-(trifluoromethyl)phenyl]methyl}amino)-1-piperidinyl]methyl}-1,2-dihydro-3H,8H-2a,5,8a-triazaacenaphthylene-3,8-dione hydrochloride]	0.04 µg/mL
Cl.N#Cc1cc(CNC2CCN(C[C@@H]3Cn4c(=O)ccc5ncc(=O)n3c54)CC2)ccc1F [Example 5, 5-{[(1-{[(2R)-3,8-dioxo-1,2-dihydro-3H,8H-2a,5,8a-triazaacenaphthylen-2-yl]methyl}-4-piperidinyl)amino]methyl}-2-fluorobenzonitrile hydrochloride]	0.11 µg/mL
Cc1cc(CNC2CCN(C[C@@H]3Cn4c(=O)ccc5ncc(=O)n3c54)CC2)ccc1F.Cl [Example 6, (2R)-2-[(4-{[(4-fluoro-3-methylphenyl)methyl]amino}-1-piperidinyl)methyl]-1,2-dihydro-3H,8H-2a,5,8a-triazaacenaphthylene-3,8-dione hydrochloride]	0.29 µg/mL
Cc1cc(CNC2CCN(C[C@@H]3Cn4c(=O)ccc5ccc(=O)n3c54)CC2)ncc1Cl.Cl [Example 7, (1R)-1-[(4-{[(5-chloro-4-methyl-2-pyridinyl)methyl]amino}-1-piperidinyl)methyl]-1,2-dihydro-4H,9H-imidazo[1,2,3-ij]-1,8-naphthyridine-4,9-dione hydrochloride]	0.3 µg/mL
Cc1ncc(CNC2CCN(C[C@@H]3Cn4c(=O)cnc5ccc(=O)n3c54)CC2)cc1Cl.Cl [Example 8, (1R)-1-[(4-{[(5-chloro-6-methyl-3-pyridinyl)methyl]amino}-1-piperidinyl)methyl]-1,2-dihydro-3H,8H-2a,5,8a-triazaacenaphthylene-3,8-dione hydrochloride]	0.08 µg/mL
O=c1cnc2ccc(=O)n3c2n1C[C@H]3CN1CCC(NCc2ccc(Cl)c(Cl)c2)CC1 [Example 10, (1R)-1-[(4-{[(3,4-dichlorophenyl)methyl]amino}-1-piperidinyl)methyl]-1,2-dihydro-3H,8H-2a,5,8a-triazaacenaphthylene-3,8-dione]	< 0.02 µg/mL
O=c1cnc2ccc(=O)n3c2n1C[C@H]3CN1CCC(NCc2ccc(C(F)(F)F)nc2)CC1 [Example 11, (1R)-1-{[4-({[6-(trifluoromethyl)-3-pyridinyl]methyl}amino)-1-piperidinyl]methyl}-1,2-dihydro-3H,8H-2a,5,8a-triazaacenaphthylene-3,8-dione]	0.14 µg/mL (≈ 0.304 µM)
Cc1ncc(CNC2CCN(C[C@@H]3Cn4c(=O)ccc5ccc(=O)n3c54)CC2)cc1Br.Cl [Example 12, (1R)-1-[(4-{[(5-bromo-6-methyl-3-pyridinyl)methyl]amino}-1-piperidinyl)methyl]-1,2-dihydro-4H,9H-imidazo[1,2,3-ij]-1,8-naphthyridine-4,9-dione hydrochloride]	< 0.019 µg/mL
Cc1cc(CNC2CCN(C[C@@H]3Cn4c(=O)ccc5ccc(=O)n3c54)CC2)cnc1C [Example 13, (1R)-1-[(4-{[(5,6-dimethyl-3-pyridinyl)methyl]amino}-1-piperidinyl)methyl]-1,2-dihydro-4H,9H-imidazo[1,2,3-ij]-1,8-naphthyridine-4,9-dione]	1.05 µg/mL (≈ 2.5 µM)
Cc1cc(CNC2CCN(CC3Cn4c(=O)ccc5ncc(=O)n3c54)CC2)cnc1C (stereo not drawn) [Example 14, 2-[(4-{[(5,6-dimethyl-3-pyridinyl)methyl]amino}-1-piperidinyl)methyl]-1,2-dihydro-3H,8H-2a,5,8a-triazaacenaphthylene-3,8-dione]	2.1 µg/mL (≈ 5 µM)
O=c1ccc2ncc(=O)n3c2n1CC3CN1CCC(NCc2cnc(Cl)c(Cl)c2)CC1 (stereo not drawn) [Example 15, 2-[(4-{[(5,6-dichloro-3-pyridinyl)methyl]amino}-1-piperidinyl)methyl]-1,2-dihydro-3H,8H-2a,5,8a-triazaacenaphthylene-3,8-dione]	< 0.018 µg/mL
O=c1ccc2ncc(=O)n3c2n1CC3CN1CCC(NCc2ccc(Cl)c(C(F)(F)F)c2)CC1 (stereo not drawn) [Example 16, 2-{[4-({[4-chloro-3-(trifluoromethyl)phenyl]methyl}amino)-1-piperidinyl]methyl}-1,2-dihydro-3H,8H-2a,5,8a-triazaacenaphthylene-3,8-dione]	0.077 µg/mL (≈ 0.156 µM)
O=c1ccc2ncc(=O)n3c2n1CC3CN1CCC(NCc2ccc(C(F)(F)F)nn2)CC1 (stereo not drawn) [Example 17, 2-{[4-({[6-(trifluoromethyl)-3-pyridazinyl]methyl}amino)-1-piperidinyl]methyl}-1,2-dihydro-3H,8H-2a,5,8a-triazaacenaphthylene-3,8-dione]	0.865 µg/mL (≈ 1.87 µM)
O=c1ccc2ccc(=O)n3c2n1C[C@H]3CN1CCC(NCc2ccc(C(F)(F)F)nn2)CC1 [Example 18, (1R)-1-{[4-({[6-(trifluoromethyl)-3-pyridazinyl]methyl}amino)-1-piperidinyl]methyl}-1,2-dihydro-4H,9H-imidazo[1,2,3-ij]-1,8-naphthyridine-4,9-dione]	0.432 µg/mL (≈ 0.938 µM)
Cl.O=c1ccc2ncc(=O)n3c2n1CC3CN1CCC(NCc2ccc(C(F)(F)F)nc2)CC1 (stereo not drawn) [Example 20, 2-{[4-({[6-(trifluoromethyl)-3-pyridinyl]methyl}amino)-1-piperidinyl]methyl}-1,2-dihydro-3H,8H-2a,5,8a-triazaacenaphthylene-3,8-dione hydrochloride]	0.311 µg/mL
O=c1ccc2ncc(=O)n3c2n1CC3CN1CCC(NCc2ccc(Cl)cc2)CC1 (stereo not drawn) [Example 21, 2-[(4-{[(4-chlorophenyl)methyl]amino}-1-piperidinyl)methyl]-1,2-dihydro-3H,8H-2a,5,8a-triazaacenaphthylene-3,8-dione]	0.266 µg/mL (≈ 0.625 µM)
O=c1ccc2ncc(=O)n3c2n1CC3CN1CCC(NCc2cccc(Cl)c2)CC1 (stereo not drawn) [Example 22, 2-[(4-{[(3-chlorophenyl)methyl]amino}-1-piperidinyl)methyl]-1,2-dihydro-3H,8H-2a,5,8a-triazaacenaphthylene-3,8-dione]	1.06 µg/mL (≈ 2.5 µM)
Cc1ccc(CNC2CCN(CC3Cn4c(=O)ccc5ncc(=O)n3c54)CC2)cc1[N+](=O)[O-] (stereo not drawn) [Example 23, 2-[(4-{[(4-methyl-3-nitrophenyl)methyl]amino}-1-piperidinyl)methyl]-1,2-dihydro-3H,8H-2a,5,8a-triazaacenaphthylene-3,8-dione]	0.036 µg/mL (≈ 0.0799 µM)
Cc1cc(CNC2CCN(CC3Cn4c(=O)ccc5ncc(=O)n3c54)CC2)sc1Br (stereo not drawn) [Example 24, 2-[(4-{[(5-bromo-4-methyl-2-thienyl)methyl]amino}-1-piperidinyl)methyl]-1,2-dihydro-3H,8H-2a,5,8a-triazaacenaphthylene-3,8-dione]	0.077 µg/mL (≈ 0.157 µM)
Cc1ccc(CNC2CCN(CC3Cn4c(=O)ccc5ncc(=O)n3c54)CC2)cc1C (stereo not drawn) [Example 25, 2-[(4-{[(3,4-dimethylphenyl)methyl]amino}-1-piperidinyl)methyl]-1,2-dihydro-3H,8H-2a,5,8a-triazaacenaphthylene-3,8-dione]	0.262 µg/mL (≈ 0.625 µM)
Cc1ncc(CNC2CCN(CC3Cn4c(=O)ccc5ncc(=O)n3c54)CC2)cc1Cl (stereo not drawn) [Example 26, 2-[(4-{[(5-chloro-6-methyl-3-pyridinyl)methyl]amino}-1-piperidinyl)methyl]-1,2-dihydro-3H,8H-2a,5,8a-triazaacenaphthylene-3,8-dione]	0.069 µg/mL (≈ 0.156 µM)
O=c1ccc2ncc(=O)n3c2n1CC3CN1CCC(NCc2ccc(OC(F)(F)F)cc2)CC1 (stereo not drawn) [Example 27, 2-({4-[({4-[(trifluoromethyl)oxy]phenyl}methyl)amino]-1-piperidinyl}methyl)-1,2-dihydro-3H,8H-2a,5,8a-triazaacenaphthylene-3,8-dione]	2.38 µg/mL (≈ 5 µM)
O=c1ccc2ncc(=O)n3c2n1CC3CN1CCC(NCc2ccc(C(F)(F)F)cc2)CC1 (stereo not drawn) [Example 28, 2-{[4-({[4-(trifluoromethyl)phenyl]methyl}amino)-1-piperidinyl]methyl}-1,2-dihydro-3H,8H-2a,5,8a-triazaacenaphthylene-3,8-dione]	0.144 µg/mL (≈ 0.313 µM)
O=c1ccc2ncc(=O)n3c2n1CC3CN1CCC(NCc2ccc(Br)cc2)CC1 (stereo not drawn) [Example 29, 2-[(4-{[(4-bromophenyl)methyl]amino}-1-piperidinyl)methyl]-1,2-dihydro-3H,8H-2a,5,8a-triazaacenaphthylene-3,8-dione]	0.147 µg/mL (≈ 0.313 µM)
Cl.O=c1ccc2ccc(=O)n3c2n1C[C@H]3CN1CCC(NCc2ccc(Cl)c(Cl)c2)CC1 [Example 31, (1R)-1-[(4-{[(3,4-dichlorophenyl)methyl]amino}-1-piperidinyl)methyl]-1,2-dihydro-4H,9H-imidazo[1,2,3-ij]-1,8-naphthyridine-4,9-dione hydrochloride]	0.019 µg/mL

same assay, conditions: ATCC 25618 / H37Rv, read-out: MtB MIC

Structure (SMILES)	MIC
O=c1ccc2ccc(=O)n3c2n1C[C@H]3CN1CCC(NCc2ccc(C(F)(F)F)nc2)CC1 [Example 9, (1R)-1-{[4-({[6-(trifluoromethyl)-3-pyridinyl]methyl}amino)-1-piperidinyl]methyl}-1,2-dihydro-4H,9H-imidazo[1,2,3-ij]-1,8-naphthyridine-4,9-dione]	0.14 µg/mL (≈ 0.305 µM)

same assay, conditions: H37Rv inhibition assay, read-out: MIC value

Structure (SMILES)	MIC
Cc1cc(CNC2CCN(C[C@@H]3Cn4c(=O)ccc5ccc(=O)n3c54)CC2)cnc1C [Example 13, (1R)-1-[(4-{[(5,6-dimethyl-3-pyridinyl)methyl]amino}-1-piperidinyl)methyl]-1,2-dihydro-4H,9H-imidazo[1,2,3-ij]-1,8-naphthyridine-4,9-dione]	> 1 µg/mL
Cc1cc(CNC2CCN(CC3Cn4c(=O)ccc5ncc(=O)n3c54)CC2)cnc1C (stereo not drawn) [Example 14, 2-[(4-{[(5,6-dimethyl-3-pyridinyl)methyl]amino}-1-piperidinyl)methyl]-1,2-dihydro-3H,8H-2a,5,8a-triazaacenaphthylene-3,8-dione]	> 1 µg/mL
O=c1ccc2ncc(=O)n3c2n1CC3CN1CCC(NCc2cccc(Cl)c2)CC1 (stereo not drawn) [Example 22, 2-[(4-{[(3-chlorophenyl)methyl]amino}-1-piperidinyl)methyl]-1,2-dihydro-3H,8H-2a,5,8a-triazaacenaphthylene-3,8-dione]	> 1 µg/mL
O=c1ccc2ncc(=O)n3c2n1CC3CN1CCC(NCc2ccc(OC(F)(F)F)cc2)CC1 (stereo not drawn) [Example 27, 2-({4-[({4-[(trifluoromethyl)oxy]phenyl}methyl)amino]-1-piperidinyl}methyl)-1,2-dihydro-3H,8H-2a,5,8a-triazaacenaphthylene-3,8-dione]	> 1 µg/mL
